Measured values reported in US8053457B2, “3-imidazolyl-indoles for the treatment of proliferative diseases” (Novartis AG, priority 2007, dated 2011).

Columns and labels:
[1] = target: T1, Hdm2 protein (amino acids 2-185) (Homo sapiens, UniProt Q00987); assay: Fluorescence polarisation assay, inhibition of p53-Hdm2 interaction; format: binding; settings: Hdm2 3 nM, Cy5-labelled p53-derived peptide 1 nM
T1 construct: Hdm2 protein (amino acids 2-185)
Method: Fluorescence Polarisation Assay
The inhibition of p53-Hdm2 interaction is measured by fluorescence polarization. Fluorescence polarization measures the rotational movement of molecules in a homogeneous suspension. For this assay, Hdm2 protein (amino acids 2-185) is combined with a Cy5-labelled p53-derived peptide optimised for Hdm2 binding (J. Med. Chem. 2000, 43, 3205-3208). Upon excitation of the Cy5 fluorescent ligand with linearly polarized light, the peptide rotates faster and emits light which is perpendicularly polarized. If the peptide is bound by Hdm2, rotation will slow down and the perpendicular component will decrease. Disruption of the formation of the peptide-Hdm2 complex due to an inhibitor molecule binding to the p53 binding site of Hdm2 results in faster rotation of the peptide. The ratiometric polarization assay readout is calculated from the parallel and perpendicular components of the fluorescence light with respect to the polarization of the excitation light.
The test is performed by combining 7 μl compounds diluted in dimethyl sulfoxide (DMSO) (10% final concentration) with 31.5 μl […] (final concentration 3 nM) in reaction buffer (PBS, 0.1% CHAPS, 1 mM DTT (dithiothreitol)). The solution is allowed to preincubate for 5 minutes at room temperature, followed by addition of 31.5 μl peptide in reaction buffer (final concentration 1 nM), and a further 5 minutes of incubation. A final volume of 20 μl (in triplicate) is distributed into small volume black 384-well plates (Greiner Bio-One GmbH, Frickenhausen, Germany). For measurement of samples, an Analyst AD multimode microplate reader (Molecular Devices Corporation, Sunnyvale, Calif., USA) with the following settings is used: Dichroic mirror 650 nm, Excitation 630 nm, Emission 695 nm. Raw values are expressed as percent of DMSO control, where background (reaction buffer with peptide but no Hdm2) is subtracted first from raw values. IC50 values are calculated by curve fitting using XLfit. If not specified, reagents were purchased from Sigma Chemical Co.

[2] = target: T2, MDM4 protein (amino acids 2-185) (Homo sapiens, UniProt O15151); assay: Time resolved fluorescence energy transfer (TR-FRET) assay, inhibition of p53-Hdm4 interaction; format: binding; settings: MDM4-Bio 10 nM, Cy5-p53 peptide 20 nM
T2 construct: MDM4 protein (amino acids 2-185), tagged with a C-terminal Biotin moiety
T2 sequence (O15151 2-185): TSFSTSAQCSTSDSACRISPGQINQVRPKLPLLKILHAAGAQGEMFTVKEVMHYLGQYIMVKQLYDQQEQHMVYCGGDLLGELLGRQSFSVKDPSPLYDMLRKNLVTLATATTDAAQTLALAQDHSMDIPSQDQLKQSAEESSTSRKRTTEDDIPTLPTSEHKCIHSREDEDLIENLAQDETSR
Method: Time Resolved Fluorescence Energy Transfer (TR-FRET) Assay
The inhibition of p53-Hdm4 interaction is measured by time resolved fluorescence energy transfer (TR-FRET). Fluorescence energy transfer (or Foerster resonance energy transfer) describes an energy transfer between donor and acceptor fluorescent molecules. For this assay, MDM4 protein (amino acids 2-185), tagged with a C-terminal Biotin moiety, is used in combination with a Europium labeled streptavidin (Perkin Elmer, Inc., Waltham, Mass., USA) serving as the donor fluorophore. The p53 derived, Cy5 labeled peptide Cy5-TFSDLWKLL (p53 aa18-26) is the energy acceptor. Upon excitation of the donor molecule at 340 nm, binding interaction between MDM4 and the p53 peptide induces energy transfer and enhanced response at the acceptor emission wavelength at 665 nm. Disruption of the formation of the p53-MDM4 complex due to an inhibitor molecule binding to the p53 binding site of MDM4 results in increased donor emission at 615 nm. The ratiometric FRET assay readout is calculated from the raw data of the two distinct fluorescence signals measured in time resolved mode (countrate 665 nm/countrate 615 nm×1000).
The test is performed in white 1536w microtiterplates (Greiner Bio-One GmbH, Frickenhausen, Germany) in a total volume of 3.1 μl by combining 100 nl of compounds diluted in 90% DMSO/10% H2O (3.2% final DMSO concentration) with 2 μl Europium labeled streptavidin (final concentration 2.5 nM) in reaction buffer (PBS, 125 mM NaCl, 0.001% Novexin (consists of carbohydrate polymers (Novexin polymers), designed to increase the solubility and stability of proteins; Novexin Ltd., Cambridgeshire, United Kingdom), Gelatin 0.01%, 0.2% Pluronic (block copolymer fromethylenoxide and propyleneoxide, BASF, Ludwigshafen, Germany), 1 mM DTT), followed by the addition of 0.5 μl MDM4-Bio diluted in assay buffer (final concentration 10 nM). Allow the solution to pre-incubate for 15 minutes at room temperature, followed by addition of 0.5 μl Cy5-p53 peptide in assay buffer (final concentration 20 nM). Incubate at room temperature for 10 minutes prior to reading the plate. For measurement of samples, an Analyst GT multimode microplate reader (Molecular Devices) with the following settings is used: Dichroic mirror 380 nm, Excitation 330 nm, Emission Donor 615 nm and Emission Acceptor 665 nm. IC50 values are calculated by curve fitting using XLfit. If not specified, reagents are purchased from Sigma Chemical Co, St. Louis, Mo., USA.

T1 sequence (Q00987 2-185): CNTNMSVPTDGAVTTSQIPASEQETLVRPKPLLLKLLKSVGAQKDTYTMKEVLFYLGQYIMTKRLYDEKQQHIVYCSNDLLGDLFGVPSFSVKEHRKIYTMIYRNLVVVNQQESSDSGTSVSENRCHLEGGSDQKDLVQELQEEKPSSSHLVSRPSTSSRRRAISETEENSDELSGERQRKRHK

SMILES | IC50 [1] | IC50 [2]
Fc1cc2c(-c3c(-c4ccccc4)ncn3Cc3ccc4cc[nH]c4c3)c[nH]c2cc1Cl [Example 135] | 7.2 µM | 68.3 µM
O=C(NCCN1CCN(Cc2ccccn2)C1=O)c1[nH]c2cc(Cl)ccc2c1-c1c(-c2ccccc2)ncn1Cc1ccc(Cl)cc1 [Example 328, 6-Chloro-3-[3-(4-chloro-benzyl)-5-phenyl-3H-imidazol-4-yl]-1H-indole-2-carboxylic acid [2-(2-oxo-3-pyridin-2-ylmethyl-imidazolidin-1-yl)-ethyl]-amide] | 0.19 µM | 63.7 µM
O=C(CN1CCN(CCNC(=O)c2[nH]c3cc(Cl)ccc3c2-c2c(-c3ccccc3)ncn2Cc2ccc(Cl)cc2)CC1)Nc1cccnc1 [Example 271] | 0.3 µM | 54.9 µM

Next, values leading:

IC50 [1] | IC50 [2] | SMILES
0.11 µM | 55.3 µM | OCc1cc(Cl)ccc1Cn1cnc(-c2ccccc2)c1-c1c[nH]c2cc(Cl)c(F)cc12 [Example 148]
0.64 µM | 43.4 µM | Oc1cccc(-c2ncn(Cc3ccc(Cl)cc3)c2-c2c[nH]c3cc(Cl)c(F)cc23)c1 [Example 142, 3-[1-(4-Chloro-benzyl)-5-(6-chloro-5-fluoro-1H-indol-3-yl)-1H-imidazol-4-yl]-phenol]
